# Tests used:
# LIXC-011 = assay: TH2870 sensitivity in liver cancer cells; format: cell-based, human; settings: AKR1C3 expression ++++
# SNU-449 = assay: TH2870 sensitivity in liver cancer cells; format: cell-based, human; settings: AKR1C3 expression ++++
# HLE = assay: TH2870 sensitivity in liver cancer cells; format: cell-based, human; settings: AKR1C3 expression ++
# AKR1C3 = target: T1, AKR1C3 (Homo sapiens, UniProt P42330); assay: Activation by the aldoketo reductase AKR1C3 (% remaining, LC/MS/MS); format: biochemical; settings: for % Remaining: 5 μM, 25 μg/mL AKR1C3, 2 mM NADPH, 37° C.
# T1 sequence (P42330 1-323): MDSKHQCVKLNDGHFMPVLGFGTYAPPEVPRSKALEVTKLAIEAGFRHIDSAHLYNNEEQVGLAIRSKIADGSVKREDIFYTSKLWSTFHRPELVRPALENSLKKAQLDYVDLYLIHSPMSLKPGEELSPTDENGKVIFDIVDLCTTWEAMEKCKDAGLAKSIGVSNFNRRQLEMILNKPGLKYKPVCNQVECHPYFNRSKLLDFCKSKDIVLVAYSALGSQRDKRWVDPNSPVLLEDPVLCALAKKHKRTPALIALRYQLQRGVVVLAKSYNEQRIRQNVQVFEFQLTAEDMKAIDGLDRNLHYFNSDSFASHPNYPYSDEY
# Method: Recombinant human AKR1C3 was diluted to 25 μg/mL in phosphate buffered saline (PBS), pH 7.4 (37° C.), containing 2 mM NADPH. TH2870 or progesterone (positive control) in 30% methanol/70% water was added to the reaction mixture at a final concentration of 5 μM and incubated at 37° C. for 120 minutes. At various times up to 120 min, 50 μL of the reaction mixture was taken and 200 μL acetonitrile containing propranolol as internal standard was added, vortex-mixed and centrifuged for 10 min. The resulting supernatant (5 μL) was injected into a LC/MS/MS for quantitation of % remaining TH2870 and progesterone. The compounds were tested in duplicate.
# DU145 = assay: TH2870 sensitivity in prostate cancer cell lines; format: cell-based; settings: Homo sapiens, DU-145
# SNU-398 = assay: TH2870 sensitivity in liver cancer cells; format: cell-based, human; settings: AKR1C3 expression /
# HLF = assay: TH2870 sensitivity in liver cancer cells; format: cell-based, human; settings: AKR1C3 expression /
# SNU-182 = assay: TH2870 sensitivity in liver cancer cells; format: cell-based, human; settings: AKR1C3 expression /
# 22RV1 = assay: TH2870 sensitivity in prostate cancer cell lines; format: cell-based; settings: Homo sapiens
# SNU-387 = assay: TH2870 sensitivity in liver cancer cells; format: cell-based, human; settings: AKR1C3 expression ++++
# Hep 3B2.1-7 = assay: TH2870 sensitivity in liver cancer cells; format: cell-based, human; settings: AKR1C3 expression /
# LIXC-003 = assay: TH2870 sensitivity in liver cancer cells; format: cell-based, human; settings: AKR1C3 expression ++++
# LIXC-012 = assay: TH2870 sensitivity in liver cancer cells; format: cell-based, human; settings: AKR1C3 expression ++++
# C3A = assay: TH2870 sensitivity in liver cancer cells; format: cell-based, human; settings: AKR1C3 expression ++++
# SNU-475 = assay: TH2870 sensitivity in liver cancer cells; format: cell-based, human; settings: AKR1C3 expression ++++
# HuCCT1 = assay: TH2870 sensitivity in liver cancer cells; format: cell-based, human
# LIXC-066 = assay: TH2870 sensitivity in liver cancer cells; format: cell-based, human; settings: AKR1C3 expression ++
# [1] = tested on: A375 melanoma human tumor xenograft; assay: Example 4-C antitumor efficacy, ectopic A375 melanoma xenograft model; format: in vivo, female nude mice (nu/nu); settings: qd × 5 × 2, ip
# JHH-7 = assay: TH2870 sensitivity in liver cancer cells; format: cell-based, human
# in vivo = settings: mouse, ip, 20 mg/kg
# Method: The pharmacokinetics of TH2870 were determined in Mouse/Nu-Foxn 1^nu NU/NU mice with A549 (non small cell lung), A375 (melanoma) and 786-O (renal cell) human tumor xenograft models following a single intraperitoneal dose of 20 mg/kg.
# [2] = Homo sapiens, read-out: RelIC50
smiles,measurement,setting,value
CC(OP(=O)(N1CC1)N1CC1)c1ccc([N+](=O)[O-])c(Oc2cccc(C(=O)N(C)C)c2)c1 (stereo not drawn) [Compound 2870],Max Inhibition %,LIXC-011,97.4%
same,IC50,LIXC-011; [2],40.8 nM
same,Max Inhibition %,SNU-449,99.6%
same,IC50,SNU-449; [2],40 nM
same,Max Inhibition %,HLE,80.5%
same,IC50,HLE; [2],84.2 nM
same,% Remaining,AKR1C3; 0 min,100%
same,% Remaining,AKR1C3; 15 min,0.232%
same,% Remaining,AKR1C3; 30 min,0.0101%
same,% Remaining,AKR1C3; 60 min,0.00%
same,% Remaining,AKR1C3; 90 min,0.00%
same,% Remaining,AKR1C3; 120 min,0.00%
same,disappearance in the presence of AKR1C3,AKR1C3; in words,rapid disappearance
same,IC50,DU145,42.9 nM
same,Max Inhibition %,SNU-398,15.3%
same,IC50,SNU-398; [2],> 1000 nM
same,Max Inhibition %,HLF,22.5%
same,IC50,HLF; [2],> 1000 nM
same,Max Inhibition %,SNU-182,19.4%
same,IC50,SNU-182; [2],> 1000 nM
same,IC50,22RV1,1.9 nM
same,Max Inhibition %,SNU-387,102.8%
same,Max Inhibition %,Hep 3B2.1-7,8.1%
same,IC50,Hep 3B2.1-7; [2],> 1000 nM
same,Max Inhibition %,LIXC-003,44.6%
same,IC50,LIXC-003; [2],5.4 nM
same,Max Inhibition %,LIXC-012,87.1%
same,Max Inhibition %,C3A,98.1%
same,IC50,C3A; [2],7.1 nM
same,Max Inhibition %,SNU-475,100.4%
same,IC50,SNU-475; [2],8 nM
same,Max Inhibition %,HuCCT1; AKR1C3 expression +,66.7%
same,IC50,"HuCCT1; Homo sapiens, HuCCT-1, AKR1C3 expression +, read-out: RelIC50",125 nM
same,Max Inhibition %,LIXC-066,75.4%
same,IC50,LIXC-066; [2],94.1 nM
same,TGD 500,[1]; 20 mpk,24 days
same,TGD 1000,[1]; 20 mpk,>18 days
same,inhibition in vivo at 20 mg/kg,"[1]; Mus musculus, A-375, 20 mpk, read-out: TGI",98%
same,Max Inhibition %,JHH-7; AKR1C3 expression +++,69.8%
same,IC50,"JHH-7; Homo sapiens, JHH7, AKR1C3 expression +++, read-out: RelIC50",107 nM
same,Kp,in vivo; Nu-Foxn1nu NU/NU,0.0079 to 0.326
same,Tmax,in vivo; Nu-Foxn1nu NU/NU,5 min
same,AUC,"in vivo; Nu-Foxn 1nu NU/NU, AUC",1570 ng·h/mL
same,Cmax,"in vivo; Nu-Foxn 1nu NU/NU, Cmax",5010 ng/mL
same,half-life,"in vivo; Nu-Foxn 1nu NU/NU, Half-Life",11.3 min

# From patent US10766914B2, “DNA alkylating agents” (OBI PHARMA, INC., priority 2015, dated 2020)
